Laboratory results published in the NIST ThermoML archive (doi:10.1021/je060149b).

Test: xn = mol fraction of the nth substance listed
Details: 101 kPa, Liquid, Taylor dispersion method, x1 = 0

| binary diffusion coefficient (293.2 K) | binary diffusion coefficient (298.2 K) | binary diffusion coefficient (303.2 K) | binary diffusion coefficient (313.2 K) | binary diffusion coefficient (323.2 K) | binary diffusion coefficient (333.2 K) | SMILES |
| --- | --- | --- | --- | --- | --- | --- |
| 6.41e-10 m2/s | 7.44e-10 m2/s | 8.36e-10 m2/s | 1.07e-09 m2/s | 1.33e-09 m2/s | 1.62e-09 m2/s | CC[C@H](C)[C@H](N)C(=O)O [2-amino-3-methylpentanoic acid] + O |
| 9.36e-10 m2/s | 1.06e-09 m2/s | 1.22e-09 m2/s | 1.5e-09 m2/s | 1.86e-09 m2/s | 2.22e-09 m2/s | NCC(=O)O [2-aminoacetic acid] + O |
| 6.41e-10 m2/s | 7.36e-10 m2/s | 8.27e-10 m2/s | 1.07e-09 m2/s | 1.32e-09 m2/s | 1.6e-09 m2/s | CCCCC(N)C(=O)O (stereo not given) [2-aminohexanoic acid] + O |
| 7.29e-10 m2/s | 8.39e-10 m2/s | 9.48e-10 m2/s | 1.2e-09 m2/s | 1.49e-09 m2/s | 1.8e-09 m2/s | CCC(N)C(=O)O (stereo not drawn) [(.+-.)-α-aminobutyric acid] + O |
| 6.77e-10 m2/s | 7.75e-10 m2/s | 8.79e-10 m2/s | 1.12e-09 m2/s | 1.39e-09 m2/s | 1.69e-09 m2/s | CCC[C@H](N)C(=O)O [(S)-2-aminopentanoic acid] + O |
| 8.06e-10 m2/s | 9.3e-10 m2/s | 1.04e-09 m2/s | 1.31e-09 m2/s | 1.63e-09 m2/s | 1.96e-09 m2/s | C[C@H](N)C(=O)O [(S)-2-aminopropanoic acid] + O |
| 6.31e-10 m2/s | 7.29e-10 m2/s | 8.46e-10 m2/s | 1.06e-09 m2/s | 1.33e-09 m2/s | 1.61e-09 m2/s | CC(C)(C)C(N)C(=O)O (stereo not drawn) [DL-tert-leucine] + O |
| 6.41e-10 m2/s | 7.35e-10 m2/s | 8.24e-10 m2/s | 1.07e-09 m2/s | 1.33e-09 m2/s | 1.6e-09 m2/s | CC(C)C[C@H](N)C(=O)O [L-leucine] + O |
| 6.76e-10 m2/s | 7.77e-10 m2/s | 8.91e-10 m2/s | 1.12e-09 m2/s | 1.4e-09 m2/s | 1.7e-09 m2/s | CC(C)[C@H](N)C(=O)O [L-valine] + O |
| 6.42e-10 m2/s | 7.38e-10 m2/s | 8.44e-10 m2/s | 1.07e-09 m2/s | 1.33e-09 m2/s | 1.61e-09 m2/s | CC[C@@H](C)[C@H](N)C(=O)O [allo-L-isoleucine] + O |
